{
  "source": "the supplement of paper PMC10307832",
  "test_in_all_cases": "relative viability (nuclei count vs DMSO), 5 days (fraction); higher = more cells survive",
  "key": {"Bexarotene": {"compound": "C=C(c1ccc(C(=O)O)cc1)c1cc2c(cc1C)C(C)(C)CCC2(C)C [Bexarotene]", "outline": "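Viability here means nuclei in treated wells divided by nuclei in vehicle wells, reported as the median across plates. Only plates with control CV below 25% and at least one doubling passed. Lung cancer cell lines in 1536-well plates were exposed to five √10-spaced library-drug doses for 5 days and counted from 4× Hoechst images in MetaXpress.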"}, "Bexarotene + Bortezomib": {"compound": "C=C(c1ccc(C(=O)O)cc1)c1cc2c(cc1C)C(C)(C)CCC2(C)C [Bexarotene] + CC(C)C[C@H](NC(=O)[C@H](Cc1ccccc1)NC(=O)c1cnccn1)B(O)O [Bortezomib] (partner 0.002 µM)", "outline": "(§1)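 Values are medians from duplicate plates. Each reflects relative viability, defined as the nuclei count of treated wells over that of vehicle wells. Lung cancer cell lines in 1536-well plates were pin-tool dosed one day after seeding with one drug alone or with a fixed anchor-drug dose plus five library-drug doses (not always all listed) in √10 steps, then fixed, stained and imaged at 4× after 5 days.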"}, "Bexarotene + Navitoclax": {"compound": "C=C(c1ccc(C(=O)O)cc1)c1cc2c(cc1C)C(C)(C)CCC2(C)C [Bexarotene] + CC1(C)CCC(c2ccc(Cl)cc2)=C(CN2CCN(c3ccc(C(=O)NS(=O)(=O)c4ccc(N[C@H](CCN5CCOCC5)CSc5ccccc5)c(S(=O)(=O)C(F)(F)F)c4)cc3)CC2)C1 [Navitoclax] (partner 0.5 µM)", "outline": "as §1"}, "Bexarotene + Foretinib": {"compound": "C=C(c1ccc(C(=O)O)cc1)c1cc2c(cc1C)C(C)(C)CCC2(C)C [Bexarotene] + COc1cc2c(Oc3ccc(NC(=O)C4(C(=O)Nc5ccc(F)cc5)CC4)cc3F)ccnc2cc1OCCCN1CCOCC1 [Foretinib] (partner 0.25 µM)", "outline": "as §1"}, "Bexarotene + Lapatinib": {"compound": "C=C(c1ccc(C(=O)O)cc1)c1cc2c(cc1C)C(C)(C)CCC2(C)C [Bexarotene] + CS(=O)(=O)CCNCc1ccc(-c2ccc3ncnc(Nc4ccc(OCc5cccc(F)c5)c(Cl)c4)c3c2)o1 [Lapatinib] (partner 2 µM)", "outline": "as §1"}, "Bexarotene + Pictilisib": {"compound": "C=C(c1ccc(C(=O)O)cc1)c1cc2c(cc1C)C(C)(C)CCC2(C)C [Bexarotene] + CS(=O)(=O)N1CCN(Cc2cc3nc(-c4cccc5[nH]ncc45)nc(N4CCOCC4)c3s2)CC1 [Pictilisib] (partner 1 µM)", "outline": "as §1"}, "Bexarotene + Crizotinib": {"compound": "C=C(c1ccc(C(=O)O)cc1)c1cc2c(cc1C)C(C)(C)CCC2(C)C [Bexarotene] + C[C@@H](Oc1cc(-c2cnn(C3CCNCC3)c2)cnc1N)c1c(Cl)ccc(F)c1Cl [Crizotinib] (partner 1 µM)", "outline": "as §1"}, "Bexarotene + Linsitinib": {"compound": "C=C(c1ccc(C(=O)O)cc1)c1cc2c(cc1C)C(C)(C)CCC2(C)C [Bexarotene] + C[C@]1(O)C[C@@H](c2nc(-c3ccc4ccc(-c5ccccc5)nc4c3)c3c(N)nccn32)C1 [Linsitinib] (partner 1 µM)", "outline": "as §1"}, "Bexarotene + Alpelisib": {"compound": "C=C(c1ccc(C(=O)O)cc1)c1cc2c(cc1C)C(C)(C)CCC2(C)C [Bexarotene] + Cc1nc(NC(=O)N2CCC[C@H]2C(N)=O)sc1-c1ccnc(C(C)(C)C(F)(F)F)c1 [Alpelisib] (partner 2 µM)", "outline": "as §1"}, "Bexarotene + Olaparib": {"compound": "C=C(c1ccc(C(=O)O)cc1)c1cc2c(cc1C)C(C)(C)CCC2(C)C [Bexarotene] + O=C(c1cc(Cc2n[nH]c(=O)c3ccccc23)ccc1F)N1CCN(C(=O)C2CC2)CC1 [Olaparib] (partner 8 µM)", "outline": "as §1"}},
  "data": [
    {"cell line": "NCI-H1299", "values": [
      {"measurement": "relative viability", "setting": "Bexarotene; 0.08 µM", "value": 1.01},
      {"measurement": "relative viability", "setting": "Bexarotene; 0.253 µM", "value": 1.12},
      {"measurement": "relative viability", "setting": "Bexarotene; 0.8 µM", "value": 1.06},
      {"measurement": "relative viability", "setting": "Bexarotene; 2.53 µM", "value": 1.01},
      {"measurement": "relative viability", "setting": "Bexarotene; 8 µM", "value": 1.02},
      {"measurement": "relative viability", "setting": "Bexarotene + Bortezomib; first compound 0.08 µM", "value": 1.07},
      {"measurement": "relative viability", "setting": "Bexarotene + Bortezomib; first compound 0.253 µM", "value": 1.1},
      {"measurement": "relative viability", "setting": "Bexarotene + Bortezomib; first compound 0.8 µM", "value": 1.04},
      {"measurement": "relative viability", "setting": "Bexarotene + Bortezomib; first compound 2.53 µM", "value": 1.02},
      {"measurement": "relative viability", "setting": "Bexarotene + Bortezomib; first compound 8 µM", "value": 1.06},
      {"measurement": "relative viability", "setting": "Bexarotene + Navitoclax; first compound 0.08 µM", "value": 1.05},
      {"measurement": "relative viability", "setting": "Bexarotene + Navitoclax; first compound 0.253 µM", "value": 1.07},
      {"measurement": "relative viability", "setting": "Bexarotene + Navitoclax; first compound 0.8 µM", "value": 1.06},
      {"measurement": "relative viability", "setting": "Bexarotene + Navitoclax; first compound 2.53 µM", "value": 1.09},
      {"measurement": "relative viability", "setting": "Bexarotene + Navitoclax; first compound 8 µM", "value": 1.04},
      {"measurement": "relative viability", "setting": "Bexarotene + Foretinib; first compound 0.08 µM", "value": 1.06},
      {"measurement": "relative viability", "setting": "Bexarotene + Foretinib; first compound 0.253 µM", "value": 1.18},
      {"measurement": "relative viability", "setting": "Bexarotene + Foretinib; first compound 0.8 µM", "value": 1.05},
      {"measurement": "relative viability", "setting": "Bexarotene + Foretinib; first compound 2.53 µM", "value": 1.1},
      {"measurement": "relative viability", "setting": "Bexarotene + Foretinib; first compound 8 µM", "value": 1.08},
      {"measurement": "relative viability", "setting": "Bexarotene + Lapatinib; first compound 0.08 µM", "value": 1.02},
      {"measurement": "relative viability", "setting": "Bexarotene + Lapatinib; first compound 0.253 µM", "value": 1.03},
      {"measurement": "relative viability", "setting": "Bexarotene + Lapatinib; first compound 0.8 µM", "value": 1.04},
      {"measurement": "relative viability", "setting": "Bexarotene + Lapatinib; first compound 2.53 µM", "value": 0.917},
      {"measurement": "relative viability", "setting": "Bexarotene + Lapatinib; first compound 8 µM", "value": 0.964},
      {"measurement": "relative viability", "setting": "Bexarotene + Pictilisib; first compound 0.08 µM", "value": 0.954},
      {"measurement": "relative viability", "setting": "Bexarotene + Pictilisib; first compound 0.253 µM", "value": 0.893},
      {"measurement": "relative viability", "setting": "Bexarotene + Pictilisib; first compound 0.8 µM", "value": 0.661},
      {"measurement": "relative viability", "setting": "Bexarotene + Pictilisib; first compound 2.53 µM", "value": 0.733},
      {"measurement": "relative viability", "setting": "Bexarotene + Pictilisib; first compound 8 µM", "value": 0.596},
      {"measurement": "relative viability", "setting": "Bexarotene + Crizotinib; first compound 0.08 µM", "value": 1},
      {"measurement": "relative viability", "setting": "Bexarotene + Crizotinib; first compound 0.253 µM", "value": 1.03},
      {"measurement": "relative viability", "setting": "Bexarotene + Crizotinib; first compound 0.8 µM", "value": 1.03},
      {"measurement": "relative viability", "setting": "Bexarotene + Crizotinib; first compound 2.53 µM", "value": 0.964},
      {"measurement": "relative viability", "setting": "Bexarotene + Crizotinib; first compound 8 µM", "value": 1.02},
      {"measurement": "relative viability", "setting": "Bexarotene + Linsitinib; first compound 0.08 µM", "value": 1.02},
      {"measurement": "relative viability", "setting": "Bexarotene + Linsitinib; first compound 0.253 µM", "value": 1.01},
      {"measurement": "relative viability", "setting": "Bexarotene + Linsitinib; first compound 0.8 µM", "value": 0.991},
      {"measurement": "relative viability", "setting": "Bexarotene + Linsitinib; first compound 2.53 µM", "value": 1.02},
      {"measurement": "relative viability", "setting": "Bexarotene + Linsitinib; first compound 8 µM", "value": 0.94},
      {"measurement": "relative viability", "setting": "Bexarotene + Alpelisib; first compound 0.08 µM", "value": 1.05},
      {"measurement": "relative viability", "setting": "Bexarotene + Alpelisib; first compound 0.253 µM", "value": 1.13},
      {"measurement": "relative viability", "setting": "Bexarotene + Alpelisib; first compound 0.8 µM", "value": 1.12},
      {"measurement": "relative viability", "setting": "Bexarotene + Alpelisib; first compound 2.53 µM", "value": 1.05},
      {"measurement": "relative viability", "setting": "Bexarotene + Alpelisib; first compound 8 µM", "value": 1.05},
      {"measurement": "relative viability", "setting": "Bexarotene + Olaparib; first compound 0.08 µM", "value": 0.951},
      {"measurement": "relative viability", "setting": "Bexarotene + Olaparib; first compound 0.253 µM", "value": 0.967},
      {"measurement": "relative viability", "setting": "Bexarotene + Olaparib; first compound 0.8 µM", "value": 0.917},
      {"measurement": "relative viability", "setting": "Bexarotene + Olaparib; first compound 2.53 µM", "value": 0.882},
      {"measurement": "relative viability", "setting": "Bexarotene + Olaparib; first compound 8 µM", "value": 0.895}
    ]}
  ]
}
